Measured values as given in PMC3822934 (Journal of Cellular and Molecular Medicine, 2012).

Assay: Comparison of blood glucose lowering with glibenclamide
Assay type: in vivo
Conditions: data not shown

COc1ccc(Cl)cc1C(=O)NCCc1ccc(S(=O)(=O)NC(=O)NC2CCCCC2)cc1 [glibenclamide]
blood glucose lowering activity compared with EH-36: comparable blood glucose lowering activities
onset of the effect compared with EH-36: faster
